Test results reported in patent US9926281B2 (priority 2014, dated 2018).

Key:
rnADAMTS-5 (1-564-6H) = rnADAMTS-5 (1-564-6H) (Rattus norvegicus, UniProt Q6TY19); details: read-out: Rat ADAMTS-5 potency IC50
human ADAMTS-5 = human ADAMTS-5 (Homo sapiens (Human), UniProt Q9UNA0); details: read-out: hADAMTS-5 potency IC50
Procedure: Finally, the fluorescence is read on the Envision (Perkin Elmer) after an incubation of 90 min at 37° C.

human TACE = human TACE (Homo sapiens (Human), UniProt P78536); details: read-out: TACE potency IC50
human MMP13 = human MMP13 (Homo sapiens (Human), UniProt P45452); details: read-out: hMMP-13 potency IC50
Procedure: Human MMP13 is preactivated by incubated the enzyme in the same buffer complemented with 1 mM freshly prepared p-Aminophenylmercuric acetate (AMPA) for 1 hour at 37° C.

Sequence of human TACE (P78536 whole entry, looked up, change not shown): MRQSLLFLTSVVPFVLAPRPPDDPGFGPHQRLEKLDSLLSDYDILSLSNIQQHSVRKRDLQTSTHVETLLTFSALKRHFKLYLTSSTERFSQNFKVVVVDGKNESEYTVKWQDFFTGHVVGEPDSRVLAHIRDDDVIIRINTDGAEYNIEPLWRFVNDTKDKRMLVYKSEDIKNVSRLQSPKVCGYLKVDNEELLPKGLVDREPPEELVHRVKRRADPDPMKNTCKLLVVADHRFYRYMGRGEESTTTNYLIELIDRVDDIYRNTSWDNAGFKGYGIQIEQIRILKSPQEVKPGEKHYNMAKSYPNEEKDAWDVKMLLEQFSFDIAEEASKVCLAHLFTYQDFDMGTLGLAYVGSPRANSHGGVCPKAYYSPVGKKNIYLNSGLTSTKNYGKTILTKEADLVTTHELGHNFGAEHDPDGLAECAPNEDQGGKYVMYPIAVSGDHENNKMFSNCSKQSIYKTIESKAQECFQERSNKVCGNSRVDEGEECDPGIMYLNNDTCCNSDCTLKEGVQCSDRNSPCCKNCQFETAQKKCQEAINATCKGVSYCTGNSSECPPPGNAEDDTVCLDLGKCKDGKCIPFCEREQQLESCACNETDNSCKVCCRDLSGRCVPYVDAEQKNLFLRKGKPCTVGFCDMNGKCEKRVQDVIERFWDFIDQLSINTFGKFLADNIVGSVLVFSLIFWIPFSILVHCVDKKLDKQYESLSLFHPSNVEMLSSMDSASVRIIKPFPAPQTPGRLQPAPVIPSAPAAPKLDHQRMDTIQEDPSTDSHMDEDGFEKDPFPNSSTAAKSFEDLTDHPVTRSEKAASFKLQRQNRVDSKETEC
Sequence of human ADAMTS-5 (Q9UNA0 262-930): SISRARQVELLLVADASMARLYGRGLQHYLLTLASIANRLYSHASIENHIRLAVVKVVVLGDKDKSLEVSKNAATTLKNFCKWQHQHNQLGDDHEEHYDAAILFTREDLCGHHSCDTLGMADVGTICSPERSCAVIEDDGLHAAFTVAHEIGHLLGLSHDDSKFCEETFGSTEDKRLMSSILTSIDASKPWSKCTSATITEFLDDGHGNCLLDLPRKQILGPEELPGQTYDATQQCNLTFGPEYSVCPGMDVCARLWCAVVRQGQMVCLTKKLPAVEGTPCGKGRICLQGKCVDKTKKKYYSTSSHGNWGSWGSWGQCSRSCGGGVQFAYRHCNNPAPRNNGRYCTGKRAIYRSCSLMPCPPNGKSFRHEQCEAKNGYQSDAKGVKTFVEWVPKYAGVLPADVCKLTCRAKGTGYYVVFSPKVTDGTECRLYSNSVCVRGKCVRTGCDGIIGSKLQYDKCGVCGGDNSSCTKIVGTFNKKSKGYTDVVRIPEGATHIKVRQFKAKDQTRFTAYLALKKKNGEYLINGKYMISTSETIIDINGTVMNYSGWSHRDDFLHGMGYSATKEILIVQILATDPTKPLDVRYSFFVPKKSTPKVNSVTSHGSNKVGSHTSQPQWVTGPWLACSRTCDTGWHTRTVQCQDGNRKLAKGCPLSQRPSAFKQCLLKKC

| Structure (SMILES) | IC50 (rnADAMTS-5 (1-564-6H)) [nM] | IC50 (human ADAMTS-5) [nM] | IC50 (human TACE) [nM] | IC50 (human MMP13) [nM] |
| --- | --- | --- | --- | --- |
| CC(C)(C)OC(=O)CC1(CCC(=O)N2CCN(c3cc(Cl)cc(Cl)c3)CC2)NC(=O)NC1=O (centres unmarked) [Cpd 188, tert-butyl 2-[4-[3-[4-(3,5-dichlorophenyl)piperazin-1-yl]-3-oxo-propyl]-2,5-dioxo-imidazolidin-4-yl]acetate] | 54 | 53 | > 4000 | 2670 |
| NCC1(CCC(=O)N2CCN(c3cc(Cl)cc(Cl)c3)CC2)NC(=O)NC1=O (centres unmarked) [compound 180, 5-(aminomethyl)-5-[3-[4-(3,5-dichlorophenyl)piperazin-1-yl]-3-oxo-propyl]imidazolidine-2,4-dione] | 241 | 177 | > 4000 | > 20000 |
| CC(CC1(C)NC(=O)NC1=O)C(=O)N1CCN(c2ccc(F)c(F)c2)CC1 (centres unmarked) [compound 211, 5-[3-[4-(3,4-difluorophenyl)piperazin-1-yl]-2-methyl-3-oxo-propyl]-5-methyl-imidazolidine-2,4-dione] | 23 | 48 | 3740 | 377 |
| CC(CC1(C2CC2)NC(=O)NC1=O)C(=O)N1CCN(c2ccc(F)c(Cl)c2)[C@@H](C)C1 (stereo partly drawn) [compound 192, 5-[3-[(3S)-4-(3-chloro-4-fluoro-phenyl)-3-methyl-piperazin-1-yl]-2-methyl-3-oxo-propyl]-5-cyclopropyl-imidazolidine-2,4-dione] | 6 | 11 | > 4000 | 865 |
| CC(CC1(C2CCOCC2)NC(=O)NC1=O)C(=O)N1CCN(c2cc(Cl)cc(Cl)c2)CC1 (centres unmarked) [compound 199, 5-[3-[4-(3,5-dichlorophenyl)piperazin-1-yl]-2-methyl-3-oxo-propyl]-5-tetrahydropyran-4-yl-imidazolidine-2,4-dione] | 48 | 62 | 1050 | > 20000 |
| CN(C)c1cccc(N2CCN(C(=O)CCC3(C4CC4)NC(=O)NC3=O)CC2)c1 (centres unmarked) [compound 209, 5-cyclopropyl-5-[3-[4-[3-(dimethylamino)phenyl]piperazin-1-yl]-3-oxo-propyl]imidazolidine-2,4-dione] | 565 | 836 | > 4000 | > 20000 |
| CC(CC1(C)NC(=O)NC1=O)C(=O)N1CCN(c2cc(F)cc(F)c2)[C@@H](C)C1 (stereo partly drawn) [compound 213, 5-[3-[(3S)-4-(3,5-difluorophenyl)-3-methyl-piperazin-1-yl]-2-methyl-3-oxo-propyl]-5-methyl-imidazolidine-2,4-dione] | 21 | 30 | > 20000 | > 4000 |
| COC(=O)CC1(CCC(=O)N2CCN(c3cc(Cl)cc(Cl)c3)CC2)NC(=O)NC1=O (centres unmarked) [Cpd 182, Methyl 2-[4-[3-[4-(3,5-dichlorophenyl)piperazin-1-yl]-3-oxo-propyl]-2,5-dioxo-imidazolidin-4-yl]acetate] | 87 | 104 | > 4000 | > 20000 |
| CC(CC1(C2CC2)NC(=O)NC1=O)C(=O)N1CCN(c2cccc(F)c2)[C@@H](C)C1 (stereo partly drawn) [compound 190, 5-cyclopropyl-5-[3-[(3S)-4-(3-fluorophenyl)-3-methyl-piperazin-1-yl]-2-methyl-3-oxo-propyl]imidazolidine-2,4-dione] | 15 | 22 | > 20000 | 3060 |
| CC(CC1(C2CC2)NC(=O)NC1=O)C(=O)N1CCN(c2cc(Cl)cc(Cl)c2)CC1 (centres unmarked) [compound 172, 5-cyclopropyl-5-[3-[4-(3,5-dichlorophenyl)piperazin-1-yl]-2-methyl-3-oxo-propyl]imidazolidine-2,4-dione] | 11 | 17 | 311 | 2740 |
| C[C@H]1CN(C(=O)CC[C@@]2(C3CC3)NC(=O)NC2=O)CCN1c1ccc(Cl)c(Cl)c1 [compound 207, (5S)-5-cyclopropyl-5-[3-[(3S)-4-(3,4-dichlorophenyl)-3-methyl-piperazin-1-yl]-3-oxo-propyl]imidazolidine-2,4-dione] | 6 | 12 | > 4000 | 2880 |
| CC(CC1(C2CC2)NC(=O)NC1=O)C(=O)N1CCN(c2cc(F)cc(Cl)c2)[C@@H](C)C1 (stereo partly drawn) [compound 194, 5-[3-[(3S)-4-(3-chloro-5-fluoro-phenyl)-3-methyl-piperazin-1-yl]-2-methyl-3-oxo-propyl]-5-cyclopropyl-imidazolidine-2,4-dione] | 5 | 11 | > 4000 | 952 |
| CC(CC1(C2CC2)NC(=O)NC1=O)C(=O)N1CCN(c2ccc(Cl)cc2)[C@@H](C)C1 (stereo partly drawn) [compound 193, 5-[3-[(3S)-4-(4-chlorophenyl)-3-methyl-piperazin-1-yl]-2-methyl-3-oxo-propyl]-5-cyclopropyl-imidazolidine-2,4-dione] | 7 | 23 | > 20000 | 433 |
| Cc1c(Cl)cc(Cl)cc1N1CCN(C(=O)CCC2(C3CC3)NC(=O)NC2=O)C[C@@H]1C (stereo partly drawn) [compound 177, 5-cyclopropyl-5-[3-[(3S)-4-(3,5-dichloro-2-methyl-phenyl)-3-methyl-piperazin-1-yl]-3-oxo-propyl]imidazolidine-2,4-dione] | 40 | 78 | 1990 | > 20000 |
| CC(CC1(C2CNC2)NC(=O)NC1=O)C(=O)N1CCN(c2cc(Cl)cc(Cl)c2)CC1 (centres unmarked) [compound 196] | 104 | 102 | > 3930 | > 20000 |
| O=C1NC(=O)C(CCC(=O)N2CCN(c3cc(Cl)cc(Cl)c3)CC2)(CNCc2ccccc2)N1 (centres unmarked) [Cpd 181, 5-[(benzylamino)methyl]-5-[3-[4-(3,5-dichlorophenyl)piperazin-1-yl]-3-oxo-propyl]imidazolidine-2,4-dione] | 127 | 97 | 2860 | > 20000 |
| C[C@H]1CN(C(=O)CCC2(C3CC3)NC(=O)NC2=O)CCN1c1cc(F)cc(Cl)c1 (stereo partly drawn) [compound 169, 5-[3-[(3S)-4-(3-chloro-5-fluoro-phenyl)-3-methyl-piperazin-1-yl]-3-oxo-propyl]-5-cyclopropyl-imidazolidine-2,4-dione] | 27 | 30 | > 20000 | > 20000 |
| CC(CC1(CC2CCN(C(=O)OC(C)(C)C)CC2)NC(=O)NC1=O)C(=O)N1CCN(c2cc(Cl)cc(Cl)c2)CC1 (centres unmarked) [compound 198, tert-butyl 4-[[4-[3-[4-(3,5-dichlorophenyl)piperazin-1-yl]-2-methyl-3-oxo-propyl]-2,5-dioxo-imidazolidin-4-yl]methyl]piperidine-1-carboxylate] | 38 | 52 | 817 | 1940 |
| Cc1ccc(F)cc1N1CCN(C(=O)C(C)CC2(C)NC(=O)NC2=O)C[C@@H]1C (stereo partly drawn) [compound 216, 5-[3-[(3S)-4-(5-fluoro-2-methyl-phenyl)-3-methyl-piperazin-1-yl]-2-methyl-3-oxo-propyl]-5-methyl-imidazolidine-2,4-dione] | 250 | 305 | > 4000 | > 20000 |
| Cc1ccc(F)cc1N1CCN(C(=O)C(C)CC2(C)NC(=O)NC2=O)CC1 (centres unmarked) [compound 175, 5-[3-[4-(5-fluoro-2-methyl-phenyl)piperazin-1-yl]-2-methyl-3-oxo-propyl]-5-methyl-imidazolidine-2,4-dione] | 22 | 25 | 251 | > 20000 |
| C[C@H]1CN(C(=O)CCC2(C3CC3)NC(=O)NC2=O)CCN1c1ccc(F)c(F)c1 (stereo partly drawn) [compound 161, 5-cyclopropyl-5-[3-[(3S)-4-(3,4-difluorophenyl)-3-methyl-piperazin-1-yl]-3-oxo-propyl]imidazolidine-2,4-dione] | 37 | 54 | > 20000 | > 20000 |
| CC(CC1(C)NC(=O)NC1=O)C(=O)N1CCN(c2ccc(F)c(Cl)c2)[C@@H](C)C1 (stereo partly drawn) [compound 405, 5-{3-[(S)-4-(3-Chloro-4-fluoro-phenyl)-3-methyl-piperazin-1-yl]-2-methyl-3-oxo-propyl}-5-methyl-imidazolidine-2,4-dione] | 18 | 22 | > 4000 | 2330 |
| C[C@H]1CN(C(=O)CCC2(C3CC3)NC(=O)NC2=O)CCN1c1ccc(F)c(Cl)c1 (stereo partly drawn) [compound 163, 5-[3-[(3S)-4-(3-chloro-4-fluoro-phenyl)-3-methyl-piperazin-1-yl]-3-oxo-propyl]-5-cyclopropyl-imidazolidine-2,4-dione] | 45 | 40 | > 20000 | > 20000 |
| Cc1c(Cl)cccc1N1CCN(C(=O)C(C)CC2(C3CC3)NC(=O)NC2=O)CC1 (centres unmarked) [compound 176, 5-[3-[4-(3-chloro-2-methyl-phenyl)piperazin-1-yl]-2-methyl-3-oxo-propyl]-5-cyclopropyl-imidazolidine-2,4-dione] | 7 | 16 | 1230 | > 20000 |
| Cc1ccc(F)cc1N1CCN(C(=O)C(C)CC2(C3CC3)NC(=O)NC2=O)CC1 (centres unmarked) [compound 174, 5-cyclopropyl-5-[3-[4-(5-fluoro-2-methyl-phenyl)piperazin-1-yl]-2-methyl-3-oxo-propyl]imidazolidine-2,4-dione] | 17 | 21 | 321 | > 20000 |
| O=C(CC1(CCC(=O)N2CCN(c3cc(Cl)cc(Cl)c3)CC2)NC(=O)NC1=O)NCCO (centres unmarked) [Cpd 189, 2-[4-[3-[4-(3,5-dichlorophenyl)piperazin-1-yl]-3-oxo-propyl]-2,5-dioxo-imidazolidin-4-yl]-N-(2-hydroxyethyl)acetamide] | 254 | 256 | > 4000 | > 20000 |
